Patent US11572369B2, “Bicyclic pyridine compositions and methods of using the same for cancer therapy” (UNIVERSITY OF SOUTH CAROLINA, priority 2019, dated 2023)

Columns and labels:
Experiment in all cases: KINOMEscan
Type in all cases: binding
Conditions in all cases: 2000 nM
CAMK2B = target: T1, CAMK2B (Homo sapiens, UniProt Q13554)
T1 construct: DNA label (qPCR read-out); purchased KINOMEscan (ScanMAX panel service)

LRRK2 = target: T2, LRRK2 (Homo sapiens, UniProt Q5S007)
T2 construct: purchased KINOMEscan (DiscoveRx) panel service

AURKB = target: T3, AURKB (Homo sapiens, UniProt Q96GD4)
T3 construct: DNA label (qPCR read-out); purchased KINOMEscan scanMAX panel (DiscoveRx)

BMPR1B = target: T4, BMPR1B (Homo sapiens, UniProt O00238)
T4 construct: DNA label (for qPCR read-out); purchased KINOMEscan scanMAX panel (DiscoveRx)

MLK1 = target: T5, MLK1 (Homo sapiens, UniProt P80192)
T5 construct: DNA label (qPCR read-out); purchased KINOMEscan scanMAX panel (DiscoveRx)

PAK4 = target: T6, PAK4 (Homo sapiens, UniProt O96013)
T6 construct: purchased DiscoverX (KINOMEscan service)

CSNK2A1 = target: T7, CSNK2A1 (Homo sapiens, UniProt P68400)
T7 construct: DNA label; purchased DiscoveRx (KINOMEscan scanMAX panel)

INSRR = target: T8, INSRR (Homo sapiens, UniProt P14616)
T8 construct: DNA label (qPCR read-out); purchased KINOMEscan (DiscoveRx) ScanMAX panel

CLK1 = target: T9, CLK1 (Homo sapiens, UniProt P49759)
T9 construct: DNA label (for qPCR read-out); purchased DiscoveRx (KINOMEscan scanMAX service)

INSR = target: T10, INSR (Homo sapiens, UniProt P06213)
T10 construct: DNA label (qPCR read-out); purchased KINOMEscan (DiscoveRx) ScanMAX panel

IKK-epsilon = target: T11, IKK-epsilon (Homo sapiens, UniProt Q14164)
T11 construct: DNA label (qPCR read-out); purchased KINOMEscan (DiscoveRx) ScanMAX panel

PIK3CA(Q546K) = target: T12, PIK3CA(Q546K) (Homo sapiens, UniProt P42336, Q546K)
T12 construct: DNA label; purchased DiscoveRx (KINOMEscan scanMAX panel)

DRAK1 = target: T13, DRAK1 (Homo sapiens, UniProt Q9UEE5)
T13 construct: DNA label (qPCR read-out); purchased KINOMEscan (DiscoveRx) panel

RIOK1 = target: T14, RIOK1 (Homo sapiens, UniProt Q9BRS2)
T14 construct: DNA label (qPCR read-out); purchased DiscoveRx (KINOMEscan ScanMAX panel)

[1] = target: T15, RSK1(Kin.Dom.1-N-terminal) (Homo sapiens, UniProt Q15418)
T15 construct: RSK1(Kin.Dom.1); purchased DiscoveRx (KINOMEscan scanMAX panel)

[2] = target: T16, TYK2(JH1domain-catalytic) (Homo sapiens, UniProt P29597)
T16 construct: JH1domain; DNA label (for qPCR read-out); purchased DiscoveRx (KINOMEscan scanMAX panel)

SGK3 = target: T17, SGK3 (Homo sapiens, UniProt Q96BR1)
T17 construct: purchased KINOMEscan (DiscoveRx)

EPHA3 = target: T18, EPHA3 (Homo sapiens, UniProt P29320)
T18 construct: purchased DiscoveRx (KINOMEscan scanMAX panel)

[3] = target: ABL1(M351T)-phosphorylated (Homo sapiens, UniProt P00519, M351T)
MELK = target: T19, MELK (Homo sapiens, UniProt Q14680)
T19 construct: purchased DiscoveRx (KINOMEscan scanMAX panel, service)

PLK4 = target: T20, PLK4 (Homo sapiens, UniProt O00444)
T20 construct: purchased DiscoveRx (KINOMEscan scanMAX panel)

PFTK1 = target: T21, PFTK1 (Homo sapiens, UniProt O94921)
T21 construct: DNA label (for qPCR read-out); purchased DiscoveRx (KINOMEscan scanMAX service)

HCK = target: T22, HCK (Homo sapiens, UniProt P08631)
T22 construct: DNA label (for qPCR read-out); purchased DiscoveRx (KINOMEscan scanMAX panel, contract assay)

PIK3CD = target: T23, PIK3CD (Homo sapiens, UniProt O00329)
T23 construct: DNA label; purchased DiscoveRx (KINOMEscan scanMAX panel)

PIK3CG = target: T24, PIK3CG (Homo sapiens, UniProt P48736)
T24 construct: DNA label; purchased DiscoveRx (KINOMEscan scanMAX panel)

EGFR(L747-T751del, Sins) = target: T25, EGFR(L747-T751del, Sins) (Homo sapiens, UniProt P00533, DEL747-750/T751S)
T25 construct: purchased DiscoveRx (KINOMEscan scanMAX panel)

HIPK3 = target: T26, HIPK3 (Homo sapiens, UniProt Q9H422)
T26 construct: DNA label (for qPCR read-out); purchased DiscoveRx (KINOMEscan scanMAX panel, contract assay)

TAOK3 = target: T27, TAOK3 (Homo sapiens, UniProt Q9H2K8)
T27 construct: DNA label (for qPCR read-out); purchased DiscoveRx (KINOMEscan scanMAX panel, contract assay)

MAP3K15 = target: T28, MAP3K15 (Homo sapiens, UniProt Q6ZN16)
T28 construct: DNA label (qPCR read-out); purchased DiscoverX (KINOMEscan service)

EPHA1 = target: T29, EPHA1 (Homo sapiens, UniProt P21709)
T29 construct: purchased DiscoveRx (KINOMEscan scanMAX panel)

[4] = target: ABL1(Q252H)-phosphorylated (Homo sapiens, UniProt P00519, Q252H)
RET(V804M) = target: T30, RET(V804M) (Homo sapiens, UniProt P07949, V804M)
T30 construct: purchased DiscoveRx (KINOMEscan scanMAX panel)

AURKC = target: T31, AURKC (Homo sapiens, UniProt Q9UQB9)
T31 construct: DNA label (qPCR read-out); purchased KINOMEscan scanMAX panel (DiscoveRx)

MET = target: T32, MET (Homo sapiens, UniProt P08581)
T32 construct: purchased DiscoveRx (KINOMEscan scanMAX panel, service)

T1 sequence (Q13554 whole entry): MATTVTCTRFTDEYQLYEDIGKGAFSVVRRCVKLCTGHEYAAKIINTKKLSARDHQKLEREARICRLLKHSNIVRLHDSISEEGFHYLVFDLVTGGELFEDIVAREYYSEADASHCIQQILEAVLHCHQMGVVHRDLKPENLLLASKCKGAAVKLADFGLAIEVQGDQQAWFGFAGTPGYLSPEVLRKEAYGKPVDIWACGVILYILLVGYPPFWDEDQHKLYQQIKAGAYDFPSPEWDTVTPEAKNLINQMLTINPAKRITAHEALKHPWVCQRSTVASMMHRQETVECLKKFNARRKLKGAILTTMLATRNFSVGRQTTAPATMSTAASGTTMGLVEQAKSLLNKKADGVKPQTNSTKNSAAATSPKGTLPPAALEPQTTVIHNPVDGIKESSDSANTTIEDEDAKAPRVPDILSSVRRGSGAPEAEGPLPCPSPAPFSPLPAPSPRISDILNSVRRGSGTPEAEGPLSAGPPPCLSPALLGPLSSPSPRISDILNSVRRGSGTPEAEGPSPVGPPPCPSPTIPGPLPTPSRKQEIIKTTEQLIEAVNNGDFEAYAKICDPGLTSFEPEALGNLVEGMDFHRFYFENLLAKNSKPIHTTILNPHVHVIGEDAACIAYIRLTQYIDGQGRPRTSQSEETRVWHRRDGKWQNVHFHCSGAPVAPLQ
T10 sequence (P06213 28-1382): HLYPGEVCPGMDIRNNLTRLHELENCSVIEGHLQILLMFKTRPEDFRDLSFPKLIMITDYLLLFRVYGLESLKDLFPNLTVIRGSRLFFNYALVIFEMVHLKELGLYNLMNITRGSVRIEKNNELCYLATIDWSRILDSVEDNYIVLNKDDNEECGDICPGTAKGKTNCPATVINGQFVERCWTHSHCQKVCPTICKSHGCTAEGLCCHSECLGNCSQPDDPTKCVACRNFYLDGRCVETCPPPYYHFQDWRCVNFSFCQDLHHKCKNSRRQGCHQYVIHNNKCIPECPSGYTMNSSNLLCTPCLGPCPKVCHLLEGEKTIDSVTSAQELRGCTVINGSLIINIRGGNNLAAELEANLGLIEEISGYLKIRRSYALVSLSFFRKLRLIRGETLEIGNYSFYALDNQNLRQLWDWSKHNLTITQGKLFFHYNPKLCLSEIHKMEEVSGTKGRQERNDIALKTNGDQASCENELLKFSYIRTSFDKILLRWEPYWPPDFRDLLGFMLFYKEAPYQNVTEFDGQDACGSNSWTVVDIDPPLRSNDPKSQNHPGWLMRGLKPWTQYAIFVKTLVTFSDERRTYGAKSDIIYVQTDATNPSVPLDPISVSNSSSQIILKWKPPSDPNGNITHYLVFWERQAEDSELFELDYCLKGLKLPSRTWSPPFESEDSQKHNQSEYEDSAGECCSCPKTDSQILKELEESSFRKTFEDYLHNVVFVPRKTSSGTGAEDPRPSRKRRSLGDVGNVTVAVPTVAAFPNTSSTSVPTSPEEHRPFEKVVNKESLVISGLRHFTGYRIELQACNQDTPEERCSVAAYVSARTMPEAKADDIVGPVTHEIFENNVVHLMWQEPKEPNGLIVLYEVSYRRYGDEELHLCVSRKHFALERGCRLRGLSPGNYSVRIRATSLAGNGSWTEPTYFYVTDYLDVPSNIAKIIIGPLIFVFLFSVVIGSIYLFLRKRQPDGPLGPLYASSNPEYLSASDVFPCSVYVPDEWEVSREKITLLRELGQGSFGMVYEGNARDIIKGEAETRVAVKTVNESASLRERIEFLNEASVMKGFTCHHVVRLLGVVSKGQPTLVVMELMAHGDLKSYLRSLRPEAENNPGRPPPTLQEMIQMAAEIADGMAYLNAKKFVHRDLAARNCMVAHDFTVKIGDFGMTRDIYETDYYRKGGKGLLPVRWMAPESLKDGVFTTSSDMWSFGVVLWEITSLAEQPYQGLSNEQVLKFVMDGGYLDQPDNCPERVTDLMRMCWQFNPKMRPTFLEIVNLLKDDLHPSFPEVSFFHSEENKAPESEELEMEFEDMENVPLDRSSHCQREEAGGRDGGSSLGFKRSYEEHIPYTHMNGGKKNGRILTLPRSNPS
T18 sequence (P29320 21-983): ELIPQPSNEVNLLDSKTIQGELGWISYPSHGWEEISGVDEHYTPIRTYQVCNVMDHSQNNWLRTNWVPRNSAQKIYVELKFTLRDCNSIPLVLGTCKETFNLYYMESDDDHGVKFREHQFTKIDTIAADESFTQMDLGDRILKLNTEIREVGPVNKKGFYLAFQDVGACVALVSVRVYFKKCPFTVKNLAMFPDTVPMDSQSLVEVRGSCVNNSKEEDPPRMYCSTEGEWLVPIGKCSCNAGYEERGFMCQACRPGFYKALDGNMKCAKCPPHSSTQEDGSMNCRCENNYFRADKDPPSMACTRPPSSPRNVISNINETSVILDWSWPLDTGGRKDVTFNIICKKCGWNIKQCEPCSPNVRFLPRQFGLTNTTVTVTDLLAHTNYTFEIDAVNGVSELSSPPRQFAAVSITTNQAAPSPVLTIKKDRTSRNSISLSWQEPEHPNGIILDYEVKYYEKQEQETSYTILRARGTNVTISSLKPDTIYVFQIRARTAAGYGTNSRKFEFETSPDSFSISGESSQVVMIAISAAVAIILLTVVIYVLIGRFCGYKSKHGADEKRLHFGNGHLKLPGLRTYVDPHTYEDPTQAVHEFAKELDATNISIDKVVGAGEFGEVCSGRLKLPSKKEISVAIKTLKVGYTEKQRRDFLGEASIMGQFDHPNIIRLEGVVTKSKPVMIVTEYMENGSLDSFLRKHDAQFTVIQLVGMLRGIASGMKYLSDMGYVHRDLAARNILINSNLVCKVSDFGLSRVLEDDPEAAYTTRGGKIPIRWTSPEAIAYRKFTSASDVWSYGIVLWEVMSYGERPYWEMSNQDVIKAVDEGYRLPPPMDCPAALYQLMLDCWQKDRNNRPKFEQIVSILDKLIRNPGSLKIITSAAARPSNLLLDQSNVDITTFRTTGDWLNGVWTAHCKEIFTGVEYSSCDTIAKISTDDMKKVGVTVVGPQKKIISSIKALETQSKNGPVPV
T13 sequence (Q9UEE5 whole entry): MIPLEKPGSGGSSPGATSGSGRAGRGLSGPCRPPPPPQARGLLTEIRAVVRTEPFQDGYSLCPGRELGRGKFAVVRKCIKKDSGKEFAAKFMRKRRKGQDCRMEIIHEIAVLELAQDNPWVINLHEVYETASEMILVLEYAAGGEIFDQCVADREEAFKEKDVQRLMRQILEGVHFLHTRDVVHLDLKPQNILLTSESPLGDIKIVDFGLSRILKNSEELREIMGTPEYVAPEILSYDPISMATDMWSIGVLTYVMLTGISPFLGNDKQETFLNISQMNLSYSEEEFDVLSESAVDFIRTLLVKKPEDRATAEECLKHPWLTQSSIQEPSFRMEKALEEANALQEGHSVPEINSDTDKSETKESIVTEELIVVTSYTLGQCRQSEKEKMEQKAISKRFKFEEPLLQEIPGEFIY
T12 sequence (P42336 whole entry Q546K): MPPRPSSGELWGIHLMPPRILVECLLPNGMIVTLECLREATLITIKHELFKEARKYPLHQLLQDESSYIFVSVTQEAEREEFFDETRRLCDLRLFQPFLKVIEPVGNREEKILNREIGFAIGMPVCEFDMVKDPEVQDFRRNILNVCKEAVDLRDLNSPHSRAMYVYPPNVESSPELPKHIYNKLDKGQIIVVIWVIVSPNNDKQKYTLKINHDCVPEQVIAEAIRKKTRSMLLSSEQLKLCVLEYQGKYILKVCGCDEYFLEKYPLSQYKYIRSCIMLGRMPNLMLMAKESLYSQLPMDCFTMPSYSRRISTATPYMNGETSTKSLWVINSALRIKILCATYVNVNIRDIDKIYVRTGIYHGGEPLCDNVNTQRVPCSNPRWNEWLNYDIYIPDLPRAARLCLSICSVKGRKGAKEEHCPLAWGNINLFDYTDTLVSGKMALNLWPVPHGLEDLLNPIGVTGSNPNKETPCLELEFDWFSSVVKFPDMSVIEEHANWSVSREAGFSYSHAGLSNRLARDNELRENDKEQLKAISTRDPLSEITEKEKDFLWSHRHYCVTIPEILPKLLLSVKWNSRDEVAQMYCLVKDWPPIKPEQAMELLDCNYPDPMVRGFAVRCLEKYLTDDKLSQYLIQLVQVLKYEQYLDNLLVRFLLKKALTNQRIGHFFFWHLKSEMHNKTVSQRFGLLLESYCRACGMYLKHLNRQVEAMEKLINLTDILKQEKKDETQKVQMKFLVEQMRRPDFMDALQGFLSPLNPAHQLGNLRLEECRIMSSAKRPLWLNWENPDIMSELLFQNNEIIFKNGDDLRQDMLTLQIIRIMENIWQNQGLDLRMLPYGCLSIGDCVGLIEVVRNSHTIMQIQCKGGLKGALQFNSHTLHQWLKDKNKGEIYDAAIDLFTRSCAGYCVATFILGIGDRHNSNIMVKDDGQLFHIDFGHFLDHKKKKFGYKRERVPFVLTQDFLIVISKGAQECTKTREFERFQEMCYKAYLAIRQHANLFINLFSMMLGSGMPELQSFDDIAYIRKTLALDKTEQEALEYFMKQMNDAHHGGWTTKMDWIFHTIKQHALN
T16 sequence (P29597 897-1176 limits assumed): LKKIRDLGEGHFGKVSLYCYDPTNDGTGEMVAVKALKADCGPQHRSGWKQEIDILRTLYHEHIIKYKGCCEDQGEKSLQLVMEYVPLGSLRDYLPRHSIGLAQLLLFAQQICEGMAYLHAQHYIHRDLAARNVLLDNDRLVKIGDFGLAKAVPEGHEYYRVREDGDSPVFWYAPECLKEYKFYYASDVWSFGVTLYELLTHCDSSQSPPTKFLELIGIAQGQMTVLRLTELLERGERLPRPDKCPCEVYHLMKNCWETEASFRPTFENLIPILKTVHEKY
T31 sequence (Q9UQB9 whole entry): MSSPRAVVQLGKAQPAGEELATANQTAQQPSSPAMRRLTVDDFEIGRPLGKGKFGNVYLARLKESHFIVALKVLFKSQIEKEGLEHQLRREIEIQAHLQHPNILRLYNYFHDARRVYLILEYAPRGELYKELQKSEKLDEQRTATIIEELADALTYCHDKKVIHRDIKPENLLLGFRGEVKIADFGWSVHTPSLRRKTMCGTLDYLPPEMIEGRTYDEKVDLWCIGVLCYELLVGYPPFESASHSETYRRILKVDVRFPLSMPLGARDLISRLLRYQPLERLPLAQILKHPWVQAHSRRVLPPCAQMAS

Row | Structure (SMILES) | % Ctrl (CAMK2B) [% Ctrl] | % Ctrl (LRRK2) [% Ctrl] | % Ctrl (AURKB) [% Ctrl] | % Ctrl (BMPR1B) [% Ctrl] | % Ctrl (MLK1) [% Ctrl] | % Ctrl (PAK4) [% Ctrl] | % Ctrl (CSNK2A1) [% Ctrl] | % Ctrl (INSRR) [% Ctrl] | % Ctrl (CLK1) [% Ctrl] | % Ctrl (INSR) [% Ctrl] | % Ctrl (IKK-epsilon) [% Ctrl] | % Ctrl (PIK3CA(Q546K)) [% Ctrl] | % Ctrl (DRAK1) [% Ctrl] | % Ctrl (RIOK1) [% Ctrl] | % Ctrl [1] [% Ctrl] | % Ctrl [2] [% Ctrl] | % Ctrl (SGK3) [% Ctrl] | % Ctrl (EPHA3) [% Ctrl] | % Ctrl [3] [% Ctrl] | % Ctrl (MELK) [% Ctrl] | also measured
1 | [2H]C([2H])([2H])N(C(=O)c1ccc(N2CCCN(c3ccnc4sc(C(N)=O)c(N)c34)CC2)cc1)C([2H])([2H])[2H] [15u_D6, 3-amino-4-(4-(4-(bis(methyl-d3)carbamoyl)phenyl)-1,4-diazepan-1-yl)thieno[2,3-b]pyridine-2-carboxamide] | 87 | 70 | 90 | 62 | 92 | 100 | 59 | 89 | 68 | 80 | 100 | 72 | 100 | 100 | 96 | 82 | 80 | 87 | 77 | 84 | % Ctrl (PLK4): 92 % Ctrl; % Ctrl (PFTK1): 100 % Ctrl; % Ctrl (HCK): 96 % Ctrl; % Ctrl (PIK3CD): 71 % Ctrl; % Ctrl (PIK3CG): 76 % Ctrl; % Ctrl (EGFR(L747-T751del, Sins)): 100 % Ctrl; % Ctrl (HIPK3): 81 % Ctrl; % Ctrl (TAOK3): 73 % Ctrl; % Ctrl (MAP3K15): 92 % Ctrl; % Ctrl (EPHA1): 95 % Ctrl; % Ctrl [4]: 75 % Ctrl; % Ctrl (RET(V804M)): 100 % Ctrl; % Ctrl (AURKC): 100 % Ctrl; % Ctrl (MET): 92 % Ctrl
2 | CN(C)C(=O)c1ccc(N2CCCN(c3ccnc4sc(C(N)=O)c(N)c34)CC2)cc1 [15u, 3-amino-4-(4-(4-(dimethylcarbamoyl)phenyl)-1,4-diazepan-1-yl)thieno[2,3-b]pyridine-2-carboxamide] | 92 | 94 | 91 | 100 | 95 | 87 | 100 | 99 | 88 | 97 | 100 | 66 | 100 | 100 | 98 | 95 | 79 | 100 | 100 | 75 | % Ctrl (PLK4): 95 % Ctrl; % Ctrl (PFTK1): 96 % Ctrl; % Ctrl (HCK): 96 % Ctrl; % Ctrl (PIK3CD): 94 % Ctrl; % Ctrl (PIK3CG): 79 % Ctrl; % Ctrl (EGFR(L747-T751del, Sins)): 87 % Ctrl; % Ctrl (HIPK3): 77 % Ctrl; % Ctrl (TAOK3): 98 % Ctrl; % Ctrl (MAP3K15): 97 % Ctrl; % Ctrl (EPHA1): 92 % Ctrl; % Ctrl [4]: 94 % Ctrl; % Ctrl (RET(V804M)): 100 % Ctrl; % Ctrl (AURKC): 100 % Ctrl; % Ctrl (MET): 99 % Ctrl
